The values that follow come from patent US20090042958A1, “Composition and method for treating immune-mediated skin disorders” (Geneblue Corporation, priority 2006, published 2009).

“And” between values parts separate entries of the source, which are not always exact repeats. Equal values may be shown once.

What all share (assay type): cell-based, human
Experiment [1] deals with PTGER2. Briefly: Micro array gene expression analysis, PTGER2. As to conditions: keratinocytes, UVB irradiated; treated/untreated (Cy5/Cy3). The protocol:
(§1) Stock solutions of test materials are listed below: • 1. UTL-5d stock: 1.7 mg/ml UTL-5d in a vehicle of 50:50 EtOH:PEG 600 v/v • 2. UTR-1 stock: 3.5 mg/ml UTR-1 in a vehicle of 50:50 EtOH:PEG 600 v/v • 3. Vehicle stock: 50:50 EtOH:PEG 600
(§2) Human epidermal keratinocytes were seeded into 6-well plates and grown at 37±2° C. and 5±1% CO2 using serum free Epilife media supplemented as recommended by the manufacturer. Upon reaching confluency, the media were removed and the cells were treated overnight with Epilife media containing 1% v/v each of the stock solutions above (Vehicle stock and UTR-1 stock). Final concentration was 35 μg/ml for UTR-1. Two wells in the 6-well plate were prepared for each treatment. After applying the test material the cells were incubated for 24 hours at 37±2° C. and 5±1% CO2.
(§3) At the end of the incubation period the culture media was removed via aspiration and replaced with phosphate buffered saline. […]
(§4) The cells were washed once with PBS and then a trypsin/EDTA solution was added to release the cells, followed by the addition of trypsin neutralizing solution. […] In general, (1) the fluorescence intensity of the gene marker should be greater than the background intensity, and (2) the ratio of Cy5/Cy3 (treated/untreated) fluorescence intensity needs to be greater than 1.3 or less than 0.66 to indicate a change of ±30% in gene expression.

Experiment [2] deals with MAP3K2. In words: Micro array gene expression analysis, MAP3K2. As to conditions: keratinocytes, UVB irradiated; treated/untreated (Cy5/Cy3). The protocol: as §1, §2, §3, §4
For experiment [3], the system named is DEFA6. In words: Micro array gene expression analysis, DEFA6. As to conditions: keratinocytes, UVB irradiated; treated/untreated (Cy5/Cy3). The method, then:
as §1, §2, §3, §4

Experiment [4] relates to TNFSF13. Briefly: Micro array gene expression analysis, TNFSF13. As to conditions: keratinocytes, UVB irradiated; treated/untreated (Cy5/Cy3). The protocol: as §1, §2, §3, §4
The test system of experiment [5] is PTGER3. In words: Micro array gene expression analysis, PTGER3. As to conditions: keratinocytes, UVB irradiated; treated/untreated (Cy5/Cy3). The method, then:
as §1, §2, §3, §4

Experiment [6] relates to CDCP1. In words: Micro array gene expression analysis, CDCP1. Conditions: keratinocytes, UVB irradiated; treated/untreated (Cy5/Cy3). The protocol:
as §1, §2, §3, §4

The subject of experiment [7] is PTGER1. In words: Micro array gene expression analysis, PTGER1. As to conditions: keratinocytes, UVB irradiated; treated/untreated (Cy5/Cy3). The protocol:
as §1, §2, §3, §4

Experiment [8] concerns EPHB4. Briefly: Micro array gene expression analysis, EPHB4. As to conditions: keratinocytes, UVB irradiated; treated/untreated (Cy5/Cy3). The method, then: as §1, §2, §3, §4
Experiment [9] concerns TNFRSF6B. Briefly: Micro array gene expression analysis, TNFRSF6B. Conditions: keratinocytes, UVB irradiated; treated/untreated (Cy5/Cy3). The method, then: as §1, §2, §3, §4
In experiment [10] the test system is APOBEC1. In words: Micro array gene expression analysis, APOBEC1. Conditions: keratinocytes, UVB irradiated; treated/untreated (Cy5/Cy3). The method, then: as §1, §2, §3, §4
In experiment [11] the test system is EFA6R. In words: Micro array gene expression analysis, EFA6R. Conditions: keratinocytes, UVB irradiated; treated/untreated (Cy5/Cy3). The protocol: as §1, §2, §3, §4
The test system of experiment [12] is JAK3. Briefly: Micro array gene expression analysis, JAK3. As to conditions: keratinocytes, UVB irradiated; treated/untreated (Cy5/Cy3). The protocol: as §1, §2, §3, §4
Experiment [13] concerns PTGIR. In words: Micro array gene expression analysis, PTGIR. As to conditions: keratinocytes, UVB irradiated; treated/untreated (Cy5/Cy3). The protocol:
as §1, §2, §3, §4

Experiment [14] concerns TUCAN. In words: Micro array gene expression analysis, TUCAN. As to conditions: keratinocytes, UVB irradiated; treated/untreated (Cy5/Cy3). The protocol:
as §1, §2, §3, §4

The subject of experiment [15] is PTGFR. Briefly: Micro array gene expression analysis, PTGFR. As to conditions: keratinocytes, UVB irradiated; treated/untreated (Cy5/Cy3). The method, then:
as §1, §2, §3, §4

The subject of experiment [16] is ITGB6. Briefly: Micro array gene expression analysis, ITGB6. As to conditions: keratinocytes, UVB irradiated; treated/untreated (Cy5/Cy3). The protocol:
as §1, §2, §3, §4

Experiment [17] deals with TNF-α. Briefly: TNF-α release (ELISA) after UVB irradiation, EpiDerm/keratinocyte model. As to conditions: for TNF-α (pg/ml), Sample2 / TNF-α (pg/ml), sample1: TNF-α released into media after UVB ~30 mJ/cm^2; for TNF-α (pg/ml), Sample2: UVB + Vehicle 147; for TNF-α (pg/ml), sample1: UVB + Vehicle 257; for TNF-α Avg.: average of sample 1 and 2, UVB + Vehicle 202. The method, then: as §1, §2
At the end of the incubation period the culture media was removed via aspiration and replaced with phosphate buffered saline. The cells were then irradiated with ˜30 mJ/cm^2 of UVB radiation. Fresh culture media was then applied to the cells and the cells were incubated overnight at 37±2° C. and 5±1% CO2. After the incubation the cell culture media was collected to measure TNF-α release by a commercial ELISA Assay kit.

In experiment [18] the test system is TGFB2. In words: Micro array gene expression analysis, TGFB2. As to conditions: keratinocytes, UVB irradiated; treated/untreated (Cy5/Cy3). The method, then:
as §1, §2, §3, §4

Turning to `Cc1cc(C(=O)Nc2ccc(Cl)cc2)no1` [UTL-5d], the “PTGER2 Gene expression (%)” value in experiment [1] is reported as 39.9%. Moreover, the “MAP3K2 Gene expression (%)” value in experiment [2] was 59.9%. In addition, the “DEFA6 Gene expression (%)” value in [3] is listed as 44.3%. The “TNFSF13 Gene expression (%)” value in experiment [4] is listed as 47.0%. In addition, the “PTGER3 Gene expression (%)” value in experiment [5] is given as 42.7%. Moreover, in [6], the “CDCP1 Gene expression (%)” value is 44.1%. Further, in experiment [7], the “PTGER1 Gene expression (%)” value is recorded as 33.8%. Also, the “EPHB4 Gene expression (%)” value in experiment [8] turned out to be 35.8%. The “TNFRSF6B Gene expression (%)” value in experiment [9] was found to be 52.1%. Moreover, the “APOBEC1 Gene expression (%)” value in experiment [10] is listed as 29.2%. Moreover, in experiment [11], the “EFA6R Gene expression (%)” value is listed as 29.2%. For the same compound, the “JAK3 Gene expression (%)” value in experiment [12] was 34.7% and 29.3%. The “PTGIR Gene expression (%)” value in experiment [13] worked out at 27.0%. In addition, in experiment [14], the “TUCAN Gene expression (%)” value amounted to 26.0%. Also, in experiment [15], the “PTGFR Gene expression (%)” value was found to be 24.5%. In experiment [16], the “ITGB6 Gene expression (%)” value came out at 24.3%. Further, in experiment [17], the “TNF-α (pg/ml), Sample2” value is 67 pg/mL; the “TNF-α (pg/ml), sample1” value was determined as 61 pg/mL; the “TNF-α Avg.” value turned out to be 64 pg/mL. The “TGFB2 Gene expression (%)” value in [18] is on record as 38.2%.

In the case of `Cc1cc(C(=O)O)no1` [UTR-1], the “PTGER2 Gene expression (%)” value in experiment [1] was 58.0%. In addition, the “MAP3K2 Gene expression (%)” value in experiment [2] came to 59.2%. Also, in [3], the “DEFA6 Gene expression (%)” value was 38.0%. The “TNFSF13 Gene expression (%)” value in experiment [4] turned out to be 42.5%. Besides, in experiment [5], the “PTGER3 Gene expression (%)” value worked out at 40.8%. The “CDCP1 Gene expression (%)” value in experiment [6] is listed as 65.6%. Also, the “PTGER1 Gene expression (%)” value in experiment [7] is on record as 28.6%. For the same compound, the “EPHB4 Gene expression (%)” value in [8] came to 43.3%. In addition, the “TNFRSF6B Gene expression (%)” value in experiment [9] is on record as 68.0%. Further, the “APOBEC1 Gene expression (%)” value in experiment [10] is reported as 33.3%. The “EFA6R Gene expression (%)” value in experiment [11] came to 37.5%. Moreover, the “JAK3 Gene expression (%)” value in [12] is 38.6% and 41.7%. For the same compound, the “PTGIR Gene expression (%)” value in [13] is recorded as 39.4%. Further, the “TUCAN Gene expression (%)” value in experiment [14] came to 33.3%. Also, the “PTGFR Gene expression (%)” value in experiment [15] worked out at 40.0%. The “ITGB6 Gene expression (%)” value in [16] stood at 30.0%. In addition, in [17], the “TNF-α (pg/ml), Sample2” value worked out at 119 pg/mL; the “TNF-α (pg/ml), sample1” value was determined as 120 pg/mL; the “TNF-α Avg.” value stood at 120 pg/mL. Further, in [18], the “TGFB2 Gene expression (%)” value came to 57.9%.
